Columns and labels:
Assay type in all cases: in vivo, rat
[1] = tested on: ovariectomized female Wistar rats, tibiae and femora; assay: Antiosteoporotic activity in ovariectomized rats: weight and length of tibiae and femora; conditions: for Femur Length / Femur Weight / Tibia Length / Tibia Weight: OVX rats, mean ± SD
Description: Each of the animal groups for experiments included comprised 10 rats. Ovaries were removed from female Wistar rats (age: 8 months, weight: 260-330 g). ITX, suspended in 1% water solution of carboxymethl cellulose sodium salt, was orally administered to rats of one group in a dose of 50 mg/kg (weight of rat) and to rats of another group in a dose of 100 mg/kg (weight of rat) 6 times per week after 2 weeks of the removal. […] An OVX (ovariectomized) group was prepared as negative control. Furthermore, another group was sham-operated as a Sham group. The OVX group and the Sham group were only fed, with no compound or drug given. Furthermore, a tibia, a femur, and a uterus were removed from every rat and then weighted. […] In the table, ITX 100 is a group of the rats which ITX was given to in a dose of 100 mg/kg, and ITX 50 is a group of the rats which ITX was given to in a dose of 50 mg/kg. E2 is a group of the rats which E2 was given to. The figures in each column of the table show averages and standard deviations of the measured values. The presentation of the figures applies to Table 3 and Table 4 as well.

[2] = tested on: ovariectomized female Wistar rats; assay: Antiosteoporotic activity in ovariectomized rats: body weight and uterine weight
Description: Each of the animal groups for experiments included comprised 10 rats. Ovaries were removed from female Wistar rats (age: 8 months, weight: 260-330 g). ITX, suspended in 1% water solution of carboxymethl cellulose sodium salt, was orally administered to rats of one group in a dose of 50 mg/kg (weight of rat) and to rats of another group in a dose of 100 mg/kg (weight of rat) 6 times per week after 2 weeks of the removal.
An OVX (ovariectomized) group was prepared as negative control. Furthermore, another group was sham-operated as a Sham group. The OVX group and the Sham group were only fed, with no compound or drug given.
Furthermore, a tibia, a femur, and a uterus were removed from every rat and then weighted.

[3] = tested on: ovariectomized female Wistar rats, proximal tibia bone; assay: Antiosteoporotic activity in ovariectomized rats: pQCT of proximal tibia (BMC, BMD, cortical geometry, bone strength indices); conditions: for Cancellous bone BMC / Cancellous bone BMD / Cortical bone BMC / Cortical bone BMD / Cortical bone thickness / Edno. C. (endosteal circumference) / Peri. C. (periosteal circumference) / Total bone BMC / Total bone BMD / Cortical bone thickness as % of that of the Sham group / Bone strength index PSSI / Bone strength index XSSI / Bone strength index YSSI: OVX rats; for Cancellous bone BMC / Cancellous bone BMD / Cortical bone BMC / Cortical bone BMD / Cortical bone thickness / Edno. C. (endosteal circumference) / Peri. C. (periosteal circumference) / Total bone BMC / Total bone BMD / Bone strength index PSSI / Bone strength index XSSI / Bone strength index YSSI: 6 weeks, 1 mm under growth plate
Description: Antiosteoporotic Activity of ITX was Assessed by Using Rats. Each of the animal groups for experiments included comprised 10 rats. Ovaries were removed from female Wistar rats (age: 8 months, weight: 260-330 g). ITX, suspended in 1% water solution of carboxymethl cellulose sodium salt, was orally administered to rats of one group in a dose of 50 mg/kg (weight of rat) and to rats of another group in a dose of 100 mg/kg (weight of rat) 6 times per week after 2 weeks of the removal. […] An OVX (ovariectomized) group was prepared as negative control. Furthermore, another group was sham-operated as a Sham group. The OVX group and the Sham group were only fed, with no compound or drug given. Tibial characteristics of the rats, which were anesthetized in advance, were measured by means of peripheral quantitative computed tomography (pQCT) 6 weeks after the initiation of the administration (i.e., 8 weeks after the removal of the ovaries). In the measurement, the left tibiae were scanned with a pQCT system XCT Research M (manufactured by Stratec Medizintechnik GmbH, Germany). Voxel size was set to 0.08 mm, slice thickness was set to 0.5 mm, and cortical BMD threshold was set to 464 mg/cm^3. Furthermore, peel mode was set to 20 to divide total bone into cortical bone or cancerous bone. A growth plate was identified after preliminary scanning (scout scan), and then a reference position was identified. Next, transverse image sets of four cross-sectional slices were scanned at a region of 1 to 5 mm under the growth plate. Cortical BMC and BMD and cancellous BMC and BMD, thickness of cortical bone, and periosteal circumference and endosteal circumference of cortical bone were measured at a separation mode of 3 and a contour mode of 2. Three indices of bone strength (X-, Y-, and Polar-axes) were also measured, and the data obtained were processed by XCT Research Series Manual Software Version 5.4, in which case the standard cortical BMD was set to 1,200 mg/cm^3. […] The figures in the total bone columns show the values of the whole bone obtained by measuring cancellous bone and cortical bone together. […] The presentation of t-test results applies to Table 4 as well. In the experiment, three bone strength indexes were measured: PSSI (polar-axis strength index), XSSI (X-axis strength index), and YSSI (Y-axis strength index).

[4] = E2 0.1 mg/kg into abdominal cavity
[5] = ITX 50 mg/kg oral, 6 times per week
[6] = ITX 100 mg/kg oral, 6 times per week

## C[C@]12CC[C@@H]3c4ccc(O)cc4CC[C@H]3[C@@H]1CC[C@@H]2O [E2, 17β-estradiol, reference compound]
[1]; [4]
  Femur Length: 3.59 ± 0.15 cm
  Femur Weight: 861 ± 65 mg
  Tibia Length: 3.76 ± 0.14 cm
  Tibia Weight: 547 ± 94 mg
[2]; E2 0.1 mg/kg
  Body weight at the end compared to the OVX group (in words): inhibition of increase
[2]; OVX rats, E2 0.1 mg/kg into abdominal cavity, end of the experiment
  Body weight at the end: 299 ± 33 g
[2]; OVX rats, E2 0.1 mg/kg, end of the experiment
  Decrease in uterine weight compared to the Sham group: 48.5%
[3]; E2 0.1 mg/kg
  BMC and BMD (total, cancellous, cortical) compared to the OVX group (in words): inhibition of decrease in all but except total BMD and cancellous BMC
  Endosteal circumference compared to the OVX group (in words): inhibition of increase
  Increase in XSSI compared to the OVX group: 15.3%
  Increase in YSSI compared to the OVX group: 23.5%
  Increase in cortical bone thickness compared to the OVX group: 9.8%
  Periosteal circumference compared to the OVX group (in words): a decrease
[3]; [4]
  Cancellous bone BMC: 0.96 ± 0.17 mg/mm
  Cancellous bone BMD: 244 ± 53 mg/mL
  Cortical bone BMC: 7.58 ± 0.48 mg/mm
  Cortical bone BMD: 1143 ± 22 mg/mL
  Cortical bone thickness: 0.56 ± 0.03 mm
  Edno. C. (endosteal circumference): 9.79 ± 0.57 mm
  Peri. C. (periosteal circumference): 13.4 ± 0.6 mm
  Total bone BMC: 10.5 ± 0.7 mg/mm
  Total bone BMD: 723 ± 38 mg/mL

## COc1cc2c(cc1O)[C@H](c1ccc(O)c(O)c1)[C@@H](CO)[C@H](CO)C2 [ITX, isotaxiresinol]
[1]; ITX 50 mg/kg oral
  Tibia weight compared with the OVX group (in words): no significant difference
[1]; ITX 100 mg/kg oral
  Femur weight compared with the OVX group (in words): no significant difference
[1]; [5]
  Femur Length: 3.64 ± 0.05 cm
  Femur Weight: 862 ± 64 mg
  Tibia Length: 3.98 ± 0.14 cm
  Tibia Weight: 588 ± 52 mg
[1]; [6]
  Femur Length: 3.59 ± 0.22 cm
  Femur Weight: 897 ± 83 mg
  Tibia Length: 3.97 ± 0.24 cm
  Tibia Weight: 562 ± 95 mg
[2]; ITX 50 mg/kg oral
  Body weight at the end compared to the OVX group (in words): inhibition of increase
[2]; ITX 100 mg/kg oral
  Body weight at the end compared to the OVX group (in words): inhibition of increase
[2]; OVX rats, ITX 50 mg/kg oral, end of the experiment
  Body weight at the end: 318 ± 18 g
[2]; OVX rats, ITX 100 mg/kg oral, end of the experiment
  Body weight at the end: 301 ± 15 g
[3]; ITX 50 mg/kg oral
  Cortical BMC compared to the OVX group (in words): inhibition of decrease
  Cortical BMD compared to the OVX group (in words): inhibition of decrease
  Endosteal circumference compared to the OVX group (in words): inhibition of increase
  Increase in PSSI compared to the OVX group: 16.2%
  Increase in XSSI compared to the OVX group: 14.2%
  Increase in YSSI compared to the OVX group: 24.0%
  Periosteal circumference compared to the OVX group (in words): the same level or an increase
  Total BMD compared to the OVX group (in words): inhibition of decrease
  Cortical bone thickness as % of that of the Sham group: 98.3%
  Bone strength index PSSI: 10.35 ± 0.89
  Bone strength index XSSI: 5.15 ± 0.62
  Bone strength index YSSI: 6.45 ± 0.67
  Cancellous bone BMC: 0.99 ± 0.12 mg/mm
  Cancellous bone BMD: 215 ± 25 mg/mL
  Cortical bone BMC: 7.72 ± 0.52 mg/mm
  Cortical bone BMD: 1137 ± 14 mg/mL
  Cortical bone thickness: 0.58 ± 0.03 mm
  Edno. C. (endosteal circumference): 9.92 ± 0.54 mm
  Peri. C. (periosteal circumference): 13.7 ± 0.5 mm
  Total bone BMC: 10.4 ± 0.8 mg/mm
  Total bone BMD: 707 ± 14 mg/mL
[3]; ITX 100 mg/kg oral
  Cancellous BMC compared to the OVX group (in words): inhibition of decrease
  Cortical BMD compared to the OVX group (in words): inhibition of decrease
  Endosteal circumference compared to the OVX group (in words): inhibition of increase
  Periosteal circumference compared to the OVX group (in words): the same level or an increase
  Cortical bone thickness as % of that of the Sham group: 93.2%
  Bone strength index PSSI: 9.34 ± 0.70
  Bone strength index XSSI: 4.77 ± 0.68
  Bone strength index YSSI: 5.71 ± 0.41
  Cancellous bone BMC: 1.04 ± 0.15 mg/mm
  Cancellous bone BMD: 207 ± 28 mg/mL
  Cortical bone BMC: 7.40 ± 0.29 mg/mm
  Cortical bone BMD: 1138 ± 17 mg/mL
  Cortical bone thickness: 0.55 ± 0.03 mm
  Edno. C. (endosteal circumference): 9.97 ± 0.37 mm
  Peri. C. (periosteal circumference): 13.6 ± 0.4 mm
  Total bone BMC: 9.82 ± 0.37 mg/mm
  Total bone BMD: 683 ± 21 mg/mL

Reference: patent US7666913B2, “Method of treating or preventing osteoporosis using isotaxiresinol derived from Taxus yunnanensis” (Kotosugi Inc., priority 2004, dated 2010)
